First: Oc1cccc([C@H]2CCCC[C@H]2NCCCCc2ccccc2)c1 (racemic)
Second: O=S(Cc1ccccc1)C1CCN(Cc2ccccc2)CC1 (racemic)
The melting point of the first is lower: 115 to 116 °C for the first, 123 °C for the second.

Going from COc1ccc(OC)c(C(=O)c2oc3ccccc3c2O)c1 to COc1ccc2c(c1)c(=O)[nH]c1c2c2ccccc2n1C, the melting point rises from 158 °C to 250 °C.

First: CC(=O)N[C@@H](CO)C(=O)NCc1ccc(N)cc1
Second: O=C(NCc1ccc(Cl)cc1)c1n[nH]c2ncc(I)cc2c1=O
The melting point of the first is lower: 158 to 160 °C for the first, > 300 °C for the second.

First: COC(=O)CCCc1cc2nc(Cl)ccc2n1S(=O)(=O)c1cccc(-c2cncs2)c1
Second: COC(=O)C1=C(C)NN=C(c2cccs2)C1c1cccc(Cl)c1 (stereo not given)
The melting point of the first is lower: 147 to 148 °C for the first, 191 °C for the second.

Compared with CC(C)(C)C(=O)COc1ccc(-c2ccc(Cl)cc2)cc1, CC(C)(C)OC(=O)N[C@H](Cc1ccc(C(F)(F)F)cc1)[C@@H](O)c1ccc(F)cc1 (racemic) is higher in melting point: 90 °C for the first, 158 to 159 °C for the second.

First: CC(C)(O)c1cc2cc(OCC(=O)O)c(Cl)c(Cl)c2s1
Second: CCOC(=O)c1cn(C(C)(C)C)c2nc(F)c(Cl)cc2c1=O
The melting point of the first is higher: 194 to 196 °C for the first, 155 °C for the second.

COc1cc(C(=O)N(C2CCCC2)C2CCCC2)ccc1Cn1cccc2ncnc1-2 and N=C(N)c1ccc(N2CCN(C3CCC(CCC(=O)O)CC3)C2=O)cc1 (stereo not given) cannot be ordered by melting point: 223 to 224 °C for the first, > 200 °C for the second.

First: C=CCn1c(C)nc2c3c(ccc21)[C@@H](OCCF)[C@H](OC(=O)C(C)(C)C)[C@@H](c1ccccc1)O3
Second: CCOC(=O)c1cccc(Nc2nc3ccccc3o2)c1
The melting point of the first is lower: 119 °C for the first, 168 to 170 °C for the second.

First: COC(=O)c1ccc(Cl)cc1NC(=O)CSc1cccc(Br)c1
Second: Cc1[nH]c(=O)ccc1C(=O)c1ccccc1
The melting point of the first is lower: 89 to 90 °C for the first, 185 to 187 °C for the second.

Going from FC(F)(F)Sc1ncn(-c2c(Cl)cc(C(F)(F)F)cc2Cl)c1Br to COC1=C(c2cccc(C(F)(F)F)c2)C(=O)N(C(C)(C)C)C1, the melting point rises from 87.5 °C to 129 °C.

First: CC(C)(C)c1cc(O)n[nH]1
Second: CC(=O)N1CCN(c2cc3nc(C(C)(C)C)sc3cc2[N+](=O)[O-])CC1
The melting point of the first is higher: 205 to 206 °C for the first, 166 to 168 °C for the second.

Compared with Cc1cccc(CCOc2nc(N)c3ncn(C4OC(CO)C(O)C4O)c3n2)c1 (stereo not given), CCOC(=O)C(=O)Nc1nc2c(s1)C(=O)c1ccccc1-2 is higher in melting point: 102 to 108 °C for the first, 237 to 238 °C for the second.

First: O=C(O)c1ccc2c(c1)Sc1ccccc1CC2O (stereo not given)
Second: Fc1ccc2c(c1)C1OC1c1ccccc1C2 (stereo not given)
The melting point of the first is lower: 202 to 204 °C for the first, 239 °C for the second.

First: CS(=O)(=O)c1ccc(-c2cnn(CC(F)(F)F)c(=O)c2-c2ccc(F)cc2)cc1
Second: Nc1ccc(-n2cnn(-c3ccc(OC(F)(F)F)cc3)c2=O)cc1
The melting point of the first is higher: 177 to 179 °C for the first, 115 to 120 °C for the second.

First: Cc1cc(C(=O)N2CCCC2)ccc1Br
Second: O=C(Nc1ccccc1)C1=C(N2CCCC2)COC1=O
The melting point of the first is lower: 55 to 57 °C for the first, 200 to 201 °C for the second.

First: Cc1cc2c(s1)CCCNC2=O
Second: O=C1OCC2CCC1(c1ccc(Cl)cc1Cl)O2 (stereo not given)
The melting point of the first is lower: 119 to 120 °C for the first, 136 to 137 °C for the second.

Compared with C=Cc1cnc(C)c(OC(=O)OCC)c1CSC(=O)OCC, CCCc1c(OCCCCCCC#N)ccc(C(C)=O)c1O is lower in melting point: 142 to 145 °C for the first, 64 to 66 °C for the second.

First: CC(=O)OS(=O)(=O)c1ccc(C)cc1
Second: COc1c(C)c(N2CCN(c3ccc(C)cc3)CC2)c(C)c2c1OC(C)(C)C2
The melting point of the first is lower: 56 to 60 °C for the first, 150 to 152 °C for the second.

Compared with CON=Cc1ncn2c1CN(C)C(=O)c1c(Cl)cccc1-2, CNC(=O)C1CCN(c2cc(-c3ccc(Cl)cc3)nc3ccc(F)cc23)CC1 is higher in melting point: 173 to 174 °C for the first, 279 °C for the second.

First: Cc1cc(C)c2c(c1C)OC1(CCN(C)CC1)C2c1ccc(C(C)C)cc1 (stereo not given)
Second: COc1cc2c3ccc(OC)c(OC)c3n(C(=O)c3ccccc3)c2cc1OC
The melting point of the first is lower: 63 to 64 °C for the first, 184 to 185 °C for the second.

Compared with COc1ccc(Nc2ncc3c(n2)-c2sc(C)nc2CC3)cn1, COc1ccc(-c2nc(CCn3ccnc3)nc3cc(OC)c(OC)cc23)cc1OC is lower in melting point: 210 to 211 °C for the first, 147 to 148 °C for the second.

First: O=C1N(C(c2ccccc2)c2ccccc2)c2ccccc2C12COc1cc(F)c(F)cc12 (stereo not given)
Second: O=C(CCc1cccc(Oc2ccccc2)c1)c1ccc[nH]1
The melting point of the first is higher: 213 to 216 °C for the first, 75 to 76 °C for the second.

First: C[C@@H](n1ncn(-c2ccc(-n3cncn3)cc2)c1=O)[C@](O)(Cn1cncn1)c1ccc(F)cc1F
Second: CC(C)C(=O)c1cn(Cc2c(F)cccc2F)c2sc(-c3ccc([N+](=O)[O-])cc3)c(CBr)c2c1=O
The melting point of the first is lower: 182 to 184 °C for the first, 202 to 204 °C for the second.

First: COc1ccc(-c2c[nH]c3c(OC)ccc(OC)c3c2=O)cc1
Second: O=S(=O)(Nc1ccc(Cl)nn1)c1ccccc1-c1ccccc1
The melting point of the first is lower: 124 to 125 °C for the first, 196 to 198 °C for the second.

First: CC(C)CCNC1=NS(=O)(=O)c2sc(Cl)cc2N1
Second: O=C(O)CCc1cnoc1-c1ccc(Cl)s1
The melting point of the first is higher: 230 to 232 °C for the first, 138 to 139 °C for the second.

Reference: a melting point compilation (Tetko et al.; mined from patent text by program, amines drawn as free bases though some values may be those of a salt)
